From US20240335464A1, “ADMINISTRATION OF STING AGONIST, CHECKPOINT INHIBITORS, AND RADIATION” (Takeda Pharmaceutical Company Limited, priority 2020, published 2024)

Tested on: EMT6 mouse breast carcinoma syngeneic tumor
Experiment: Study 3: EMT6 orthotopic (mammary fat pad) syngeneic tumor model, time-to-progression analysis
Format: in vivo, female BALB/c mice
Protocol: Study 3: EMT6 is a mouse breast carcinoma cell line. EMT6 mouse syngeneic tumor model was generated by orthotopic inoculation with 1.0×10^6 EMT6 cells (cell suspension) in seven to eight week old female BALB/c mice (Envigo Corp., Indianapolis, IN) in the mammary fat pad. When the mean tumor volume reached approximately 110 mm^3, the animals were randomized into one vehicle control and eight treatment groups (n=8/group). Mice were then treated with Compound No. 14, anti-mouse PD-1 (anti-mPD-1) (clone RMP1-14), and/or three fraction doses of 8 Gy of Radiation (8 Gy×3), or the respective control agents (PBS, isotype control antibody, and/or mock radiation) in the following combinations over an 11-day period. • Group 1: vehicle (PBS)+isotype control+mock radiation • Group 2: Compound No. 14 (1 mg/kg)+isotype control+mock radiation • Group 3: Compound No. 14 (0.25 mg/kg)+isotype control+mock radiation • Group 4: vehicle+anti-mPD-1+mock radiation • Group 5: vehicle+isotype control+radiation (8 Gy×3) • Group 6: Compound No. 14 (1 mg/kg)+isotype control+radiation (8 Gy×3) • Group 7: vehicle+anti-mPD-1+radiation (8 Gy×3) • Group 8: Compound No. 14 (1 mg/kg)+anti-mPD-1+radiation (8 Gy×3) • Group 9: Compound No. 14 (0.25 mg/kg)+anti-mPD-1+radiation (8 Gy×3)
Tumor growth and body weight were measured three times per week during the treatment and post-treatment periods. Mice were humanely euthanized once they had reached their humane endpoint. Mice with complete regressions were evaluated until day 74 or day 108.
Study 3: A 0.1 mg/mL stock solution of Compound No. 14 was formulated in PBS and administered IV based on exact animal body weight on each day of treatment, using a dosing volume of 10 mL/kg body weight. Final doses received were 0.25 mg/kg or 1.0 mg/kg. Compound No. 14 was administered on a Q3D schedule for 3 doses (Days 12, 15 and 18) in single agent treatment group and in combination treatment groups. Dose formulation of Compound No. 14 was prepared once and utilized for all three dosing days.
Formulated anti-mPD-1 and isotype control were stored at 4 degree Celsius until subsequent dosing on Days 15 and 18. Anti-mPD-1 or isotype control was administered concurrent with Compound No. 14 or vehicle control on a Q3D schedule for 3 doses (Days 12, 15 and 18) in single agent treatment groups and in combination treatment groups.
Radiation treatment for Study 3 was performed using focal beam radiation with volumetric image guidance from computed tomography scans SARRP (Small Animal Radiation Research Platform) irradiator (Xstrahl Inc. Suwanee, Ga). Animals received 2.42 Gy/min of radiation and approximately 3.3 min was needed to reach 8 Gy dose delivery. Animals received 8 Gy radiation on days 8, 9 and 10, with the last radiation dose given two days prior to the initiation of dosing with Compound No. 14 and/or anti-mPD-1 or relevant controls on Day 12. Animals were anesthetized during imaging and radiation treatment using 1-2% Isoflurane. For repeated daily radiation treatments, the same treatment plan was applied and adjusted for changes in animal positioning or target alteration over time.
Tumors were measured three times weekly using vernier calipers. Tumor volumes were calculated using standard equation: V=W^2×L/2, where V=volume, W=width, and L=length for the tumor. When mean tumor volumes reached approximately 60 mm^3 for Study 1, 75 mm^3 for Study 2, and 110 mm^3 for Study 3, mice were randomized into eight groups (n=10/group) in Studies 1 and 2, and nine groups (n=8/group) in Study 3. These groups were then dosed with vehicle (PBS), Compound No. 14, Radiation, anti-mPD-1 or isotype control, or combinations of these agents as described in Tables 1a, 2a, and 3a. Tumor size and body weight were measured three times a week for the duration of each study. […]

Nc1ncnc2c1ncn2[C@@H]1O[C@@H]2COP(=O)(S)O[C@@H]3[C@H](O)[C@@H](COP(=O)(S)O[C@H]2[C@H]1F)O[C@H]3n1cc(F)c2c(=O)[nH]cnc21 (stereo partly shown) [Compound No. 14]
Synergy Hazard Ratio (Weibull) (Combination Gr 6 [Compound No. 14 (1 mg/kg) + isotype control + radiation (8 Gy × 3)] vs Gr 2 and Gr 5): 0.00194 | Mice remaining on study beyond day 53 (Gr 2: Compound No. 14 (1 mg/kg) + isotype control + mock radiation): no mice | HR (Weibull), time to progression, pairwise comparison to vehicle group (Gr 1) (Gr 2: Compound No. 14 (1 mg/kg) IV Q3D×3 + isotype control + mock radiation, TTP = tumor volume reaching 1000 mm^3): 0.485 | HR (Weibull), time to progression, pairwise comparison to vehicle group (Gr 1) (Gr 3: Compound No. 14 (0.25 mg/kg) IV Q3D×3 + isotype control + mock radiation): 0.37 | HR (Weibull), time to progression, pairwise comparison to vehicle group (Gr 1) (Gr 6: Compound No. 14 (1 mg/kg) + isotype control + radiation (8 Gy×3)): 0.00091 | Mice remaining on study as tumor-free survivors at end of study (Day 108) (Group 6: Compound No. 14 (1 mg/kg) + isotype control + 8 Gy×3 Radiation, n=8/group): 5 mice | Combination effect on TTP (synergy, in words) (Group 6: Compound No. 14 (1 mg/kg) and 8 Gy×3 Radiation with isotype control): Statistically significant synergy
